Results as given in publication PMC12238268, “The immunomodulatory p43 secreted protein of Trichuris whipworm parasites is a lipid carrier that binds signalling lipids and precursors” (Scientific Reports, 2025).

Legend:
Format in all cases: binding
[1] = target: T1, p43 (Tm-DLP-1) (Trichuris muris, UniProt A0A5S6QYG9); assay: fluorescence titration
T1 construct: native, purified from adult worm excretory/secretory medium by Ni-NTA (natural His-rich tail) and Superdex 75; signal peptide predicted cleaved between 17 and 18

[2] = target: T1, p43 (Tm-DLP-1); assay: intrinsic fluorescence enhancement of ligand; settings: PBS pH 7.2
[3] = target: T1, p43 (Tm-DLP-1); assay: fluorescence enhancement and blue shift of probe; settings: approximately 1 μM DACA; PBS pH 7.2

T1 sequence (A0A5S6QYG9 entry or part of it): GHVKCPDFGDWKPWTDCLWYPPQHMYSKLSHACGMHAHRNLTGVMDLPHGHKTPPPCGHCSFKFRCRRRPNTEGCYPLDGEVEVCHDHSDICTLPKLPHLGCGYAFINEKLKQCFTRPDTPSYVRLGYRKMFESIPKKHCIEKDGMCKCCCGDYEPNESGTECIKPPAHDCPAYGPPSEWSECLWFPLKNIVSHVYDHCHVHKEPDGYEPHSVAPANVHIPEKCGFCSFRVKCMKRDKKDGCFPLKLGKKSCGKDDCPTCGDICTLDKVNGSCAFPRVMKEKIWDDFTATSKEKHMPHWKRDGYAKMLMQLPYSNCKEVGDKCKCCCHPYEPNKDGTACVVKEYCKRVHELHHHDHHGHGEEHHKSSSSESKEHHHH

CN(C)c1cccc2c(S(=O)(=O)NCCCCCCCCCCC(=O)O)cccc12 [DAUDA, 11-((5-dimethylaminonaphthalene-1-sulfonyl)amino)undecanoic]
Kd [1]: 350 nM

CC\C=C/C=C/C=C/C=C\CCCCCCCC(=O)O [cis-parinaric acid]
intrinsic fluorescence enhancement of ligand ([2]; approximately 4 μM cPnA): p43 bound cPnA strongly and was displaceable with oleic acid (Fig. 1C)

CCCCCCC(NS(=O)(=O)c1cccc2c(N(C)C)cccc12)C(=O)O (stereo not shown) [dansyl aminocaprylic acid]
fluorescence enhancement and blue shift of probe [3]: essentially the same observations with another fluorescent probe, dansyl aminocaprylic acid (DACA)

CC1=C(/C=C/C(C)=C/C=C/C(C)=C/CO)C(C)(C)CCC1 [retinol]
intrinsic fluorescence enhancement of ligand ([2]; approximately 1 μM retinol): p43 bound retinol, from which it was displaceable by oleic acid (Fig. 2A)
